What was measured:
MDA-MB-231 [1] = assay: Growth inhibition of human MDA-MB-231 cells at 100 uM after 24 hrs by MTT assay; type: functional; conditions: MDA-MB-231, 24 h
MDA-MB-231 [2] = assay: Growth inhibition of human MDA-MB-231 cells after 24 hrs by MTT assay; type: functional, cell-based; conditions: MDA-MB-231, 24 h

Row | IC50 (MDA-MB-231 [2]) | Compound | inhibition at 100 µM (MDA-MB-231 [1])
1 | 1.35 µM | CC(=O)OC[C@H]1O[C@@H](Oc2ccc(-c3nnc(-c4cccc(Cl)c4)o3)cc2)[C@H](OC(C)=O)[C@@H](OC(C)=O)[C@@H]1OC(C)=O | 36.7%
2 | – | O=C(N/N=C/c1ccccc1)c1ccc(O[C@@H]2O[C@H](CO)[C@@H](O)[C@H](O)[C@H]2O)cc1 | 3.56%
3 | 0.89 µM | CC(=O)OC[C@H]1O[C@@H](Oc2ccc(-c3nnc(-c4ccc(Cl)cc4)o3)cc2)[C@H](OC(C)=O)[C@@H](OC(C)=O)[C@@H]1OC(C)=O | 42.1%
4 | – | Cc1ccc(/C=N/NC(=O)c2ccc(O[C@@H]3O[C@H](CO)[C@@H](O)[C@H](O)[C@H]3O)cc2)cc1 (stereo in doubt) | 9.28%
5 | – | O=C(N/N=C/C1CCCCC1)c1ccc(O[C@@H]2O[C@H](CO)[C@@H](O)[C@H](O)[C@H]2O)cc1 | 0.88%
6 | – | O=C(N/N=C/c1ccc([N+](=O)[O-])cc1)c1ccc(O[C@@H]2O[C@H](CO)[C@@H](O)[C@H](O)[C@H]2O)cc1 | 7.12%
7 | – | COc1ccc(/C=N/NC(=O)c2ccc(O[C@@H]3O[C@H](CO)[C@@H](O)[C@H](O)[C@H]3O)cc2)cc1 (stereo in doubt) | 11.3%
8 | – | O=C(N/N=C/c1ccc(F)cc1)c1ccc(O[C@@H]2O[C@H](CO)[C@@H](O)[C@H](O)[C@H]2O)cc1 (stereo in doubt) | 9.91%
9 | 9.23 µM | COc1ccc(-c2nnc(-c3ccc(O[C@@H]4O[C@H](COC(C)=O)[C@@H](OC(C)=O)[C@H](OC(C)=O)[C@H]4OC(C)=O)cc3)o2)cc1 | 26%
10 | 5.97 µM | CC(=O)OC[C@H]1O[C@@H](Oc2ccc(-c3nnc(-c4ccccc4)o3)cc2)[C@H](OC(C)=O)[C@@H](OC(C)=O)[C@@H]1OC(C)=O | 29.5%
11 | – | CC(=O)OC[C@H]1O[C@@H](Oc2ccc(-c3nnc(C(C)C)o3)cc2)[C@H](OC(C)=O)[C@@H](OC(C)=O)[C@@H]1OC(C)=O | 11.9%
12 | 5.23 µM | CN(CCOc1ccc(CC2SC(=O)NC2=O)cc1)c1ccccn1 (stereo not given) [ROSIGLITAZONE] | 34.2%
13 | – | O=C(N/N=C/c1cccc([N+](=O)[O-])c1)c1ccc(O[C@@H]2O[C@H](CO)[C@@H](O)[C@H](O)[C@H]2O)cc1 | 6.23%
14 | 0.26 µM | CC(=O)OC[C@H]1O[C@@H](Oc2ccc(-c3nnc(-c4ccc(F)cc4)o3)cc2)[C@H](OC(C)=O)[C@@H](OC(C)=O)[C@@H]1OC(C)=O | 54.1%
15 | – | CC(=O)OC[C@H]1O[C@@H](Oc2ccc(-c3nnc(C4CCCCC4)o3)cc2)[C@H](OC(C)=O)[C@@H](OC(C)=O)[C@@H]1OC(C)=O | 11.6%
16 | – | N#Cc1cccc(/C=N/NC(=O)c2ccc(O[C@@H]3O[C@H](CO)[C@@H](O)[C@H](O)[C@H]3O)cc2)c1 | 6.17%
17 | – | CC(=O)OC[C@H]1O[C@@H](Oc2ccc(-c3nnc(-c4ccc(C)cc4)o3)cc2)[C@H](OC(C)=O)[C@@H](OC(C)=O)[C@@H]1OC(C)=O | 13.1%
18 | 0.95 µM | CC(=O)OC[C@H]1O[C@@H](Oc2ccc(-c3nnc(-c4ccc([N+](=O)[O-])cc4)o3)cc2)[C@H](OC(C)=O)[C@@H](OC(C)=O)[C@@H]1OC(C)=O | 58%
19 | 3.6 µM | CC(=O)OC[C@H]1O[C@@H](Oc2ccc(-c3nnc(-c4cccc([N+](=O)[O-])c4)o3)cc2)[C@H](OC(C)=O)[C@@H](OC(C)=O)[C@@H]1OC(C)=O | 40.1%
20 | – | CCCCC/C=N/NC(=O)c1ccc(O[C@@H]2O[C@H](CO)[C@@H](O)[C@H](O)[C@H]2O)cc1 | 11%
21 | – | O=C(N/N=C/c1cccc(Cl)c1)c1ccc(O[C@@H]2O[C@H](CO)[C@@H](O)[C@H](O)[C@H]2O)cc1 | 5.02%
22 | – | O=C(N/N=C/c1ccc(Cl)cc1)c1ccc(O[C@@H]2O[C@H](CO)[C@@H](O)[C@H](O)[C@H]2O)cc1 (stereo in doubt) | 2.26%
23 | 1.08 µM | CC(=O)OC[C@H]1O[C@@H](Oc2ccc(-c3nnc(-c4cccc(C#N)c4)o3)cc2)[C@H](OC(C)=O)[C@@H](OC(C)=O)[C@@H]1OC(C)=O | 44.1%
24 | 8.34 µM | CCCCCc1nnc(-c2ccc(O[C@@H]3O[C@H](COC(C)=O)[C@@H](OC(C)=O)[C@H](OC(C)=O)[C@H]3OC(C)=O)cc2)o1 | 21.5%
25 | – | CC(C)/C=N/NC(=O)c1ccc(O[C@@H]2O[C@H](CO)[C@@H](O)[C@H](O)[C@H]2O)cc1 | 1.7%

— ChEMBL document CHEMBL3351475, “Synthesis and anti-tumor activity of glycosyl oxadiazoles derivatives” (Bioorg Med Chem Lett, 2014)
